{"source": "patent US7371766B2", "about": "“Curcumin analogs with anti-tumor and anti-angiogenic properties” (Emory University, priority 1999, dated 2008)", "key": {"UACC-257": {"system": "UACC-257", "assay": "cells", "conditions": "Homo sapiens, UACC-257, 48 h"}, "DU-145": {"system": "DU-145", "assay": "cells", "conditions": "Homo sapiens, DU-145, 48 h"}, "PC-3": {"system": "PC-3", "assay": "cells", "conditions": "Homo sapiens, PC-3, 48 h"}, "HCT-116": {"system": "HCT-116", "assay": "cells", "conditions": "Homo sapiens, HCT-116, 48 h"}, "BT-549": {"system": "BT-549", "assay": "cells", "conditions": "Homo sapiens, BT-549, 48 h"}, "CCRF-CEM": {"system": "CCRF-CEM", "assay": "cells", "conditions": "Homo sapiens, 48 h, read-out: Median Growth Inhibitory Concentration (GI50)"}, "MOLT-4": {"system": "MOLT-4", "assay": "cells", "conditions": "Homo sapiens, MOLT-4, 48 h"}, "NCI-H23": {"system": "NCI-H23", "assay": "cells", "conditions": "Homo sapiens, NCI-H23, 48 h"}, "[1]": {"system": "Sixty human tumor cell lines", "conditions": "NCI Anti-Tumor Screen, several cell types"}, "TK-10": {"system": "TK-10", "assay": "cells", "conditions": "Homo sapiens, TK-10, 48 h"}, "NCI-H522": {"system": "NCI-H522", "assay": "cells", "conditions": "Homo sapiens, NCI-H522, 48 h"}, "A549": {"system": "A549", "assay": "cells", "conditions": "Homo sapiens, A549, 48 h"}, "MALME-3M": {"system": "MALME-3M", "assay": "cells", "conditions": "Homo sapiens, 48 h"}, "OVCAR-5": {"system": "OVCAR-5", "assay": "cells", "conditions": "Homo sapiens, OVCAR-5, 48 h"}, "HCC-2998": {"system": "HCC-2998", "assay": "cells", "conditions": "Homo sapiens, HCC 2998, 48 h"}, "OVCAR-8": {"system": "OVCAR-8", "assay": "cells", "conditions": "Homo sapiens, OVCAR-8, 48 h"}, "SNB-19": {"system": "SNB-19", "assay": "cells", "conditions": "Homo sapiens, SNB-19, 48 h"}, "MDA-MB-435": {"system": "MDA-MB-435", "assay": "cells", "conditions": "Homo sapiens, MDA-MB-435, 48 h"}, "SK-OV-3": {"system": "SK-OV-3", "assay": "cells", "conditions": "Homo sapiens, SK-OV-3, 48 h"}, "MDA-N": {"system": "MDA-N", "assay": "cells", "conditions": "Homo sapiens, 48 h"}, "OVCAR-3": {"system": "OVCAR-3", "assay": "cells", "conditions": "Homo sapiens, OVCAR-3, 48 h"}, "HT29": {"system": "HT29", "assay": "cells", "conditions": "Homo sapiens, HT-29, 48 h"}, "SNB-75": {"system": "SNB-75", "assay": "cells", "conditions": "Homo sapiens, SNB-75, 48 h"}, "SF-295": {"system": "SF-295", "assay": "cells", "conditions": "Homo sapiens, SF-295, 48 h"}, "HCT-15": {"system": "HCT-15", "assay": "cells", "conditions": "Homo sapiens, HCT-15, 48 h"}, "HOP-62": {"system": "HOP-62", "assay": "cells", "conditions": "Homo sapiens, HOP-62, 48 h, read-out: Median Growth Inhibitory Concentration (GI50)"}, "RPMI-7951 human melanoma": {"system": "RPMI-7951 human melanoma", "assay": "Neutral Red Assay, cell viability, RPMI-7951", "conditions": "Homo sapiens"}, "SR": {"system": "SR", "assay": "cells", "conditions": "Homo sapiens, 48 h"}, "SK-MEL-2": {"system": "SK-MEL-2", "assay": "cells", "conditions": "Homo sapiens, SK-MEL-2, 48 h"}, "[2]": {"conditions": "read-out: Median Growth Inhibitory Concentration (GI50)"}, "[3]": {"conditions": "read-out: Median Lethal Concentration (LC50)"}, "[4]": {"conditions": "RPMI-7951, 72 h, read-out: Neutral Red Uptake, %"}, "[5]": {"conditions": "RPMI-7951, read-out: Cell Viability"}}, "note": "Read-outs that look alike come from different tables or passages of the source."}
{"smiles": "O=C1C(=Cc2ccccc2O)CCCC1=Cc1ccccc1O", "note": "[EF4, 2,6Bis(2-hydroxybenzylidene)cyclohexanone]", "values": [{"measurement": "GI50", "setting": "UACC-257; [2]", "value": 2.9, "unit": "µM"}, {"measurement": "CC50", "setting": "UACC-257; [3]", "value": 57.8, "unit": "µM"}, {"measurement": "GI50", "setting": "DU-145; [2]", "value": 1.4, "unit": "µM"}, {"measurement": "CC50", "setting": "DU-145; [3]", "value": 7, "unit": "µM"}, {"measurement": "GI50", "setting": "PC-3; [2]", "value": 2.1, "unit": "µM"}, {"measurement": "CC50", "setting": "PC-3; [3]", "value": 28.6, "unit": "µM"}, {"measurement": "GI50", "setting": "HCT-116; [2]", "value": 2.2, "unit": "µM"}, {"measurement": "CC50", "setting": "HCT-116; [3]", "value": 13.2, "unit": "µM"}, {"measurement": "GI50", "setting": "BT-549; [2]", "value": 2.4, "unit": "µM"}, {"measurement": "CC50", "setting": "BT-549; [3]", "value": 26.1, "unit": "µM"}, {"measurement": "GI50", "setting": "CCRF-CEM", "value": 1.4, "unit": "µM"}, {"measurement": "GI50", "setting": "MOLT-4; [2]", "value": 2.2, "unit": "µM"}, {"measurement": "CC50", "setting": "MOLT-4; [3]", "value": 69.5, "unit": "µM"}, {"measurement": "GI50", "setting": "NCI-H23; [2]", "value": 1.8, "unit": "µM"}, {"measurement": "CC50", "setting": "NCI-H23; [3]", "value": 9.4, "unit": "µM"}, {"measurement": "GI50 compared with CISPLATIN, in words", "setting": "[1]", "value": "lower GI50 than the chemotherapeutic agent CISPLATIN for several cell types"}, {"measurement": "LC50 compared with CISPLATIN, in words", "setting": "[1]", "value": "lower LC50 than the chemotherapeutic agent CISPLATIN for several cell types"}, {"measurement": "GI50", "setting": "TK-10; [2]", "value": 3, "unit": "µM"}, {"measurement": "CC50", "setting": "TK-10; [3]", "value": 22.6, "unit": "µM"}, {"measurement": "GI50", "setting": "NCI-H522; [2]", "value": 2.9, "unit": "µM"}, {"measurement": "CC50", "setting": "NCI-H522; [3]", "value": "> 100", "unit": "µM"}, {"measurement": "GI50", "setting": "A549; [2]", "value": 2.6, "unit": "µM"}, {"measurement": "CC50", "setting": "A549; [3]", "value": "> 100", "unit": "µM"}, {"measurement": "GI50", "setting": "MALME-3M; [2]", "value": 2.3, "unit": "µM"}, {"measurement": "CC50", "setting": "MALME-3M; [3]", "value": 24.3, "unit": "µM"}, {"measurement": "GI50", "setting": "OVCAR-5; [2]", "value": 2.6, "unit": "µM"}, {"measurement": "CC50", "setting": "OVCAR-5; [3]", "value": 55.9, "unit": "µM"}, {"measurement": "GI50", "setting": "HCC-2998; [2]", "value": 1.7, "unit": "µM"}, {"measurement": "CC50", "setting": "HCC-2998; [3]", "value": 5.9, "unit": "µM"}, {"measurement": "GI50", "setting": "OVCAR-8; [2]", "value": 2.9, "unit": "µM"}, {"measurement": "CC50", "setting": "OVCAR-8; [3]", "value": "> 100", "unit": "µM"}, {"measurement": "GI50", "setting": "SNB-19; [2]", "value": 3.2, "unit": "µM"}, {"measurement": "CC50", "setting": "SNB-19; [3]", "value": 42.3, "unit": "µM"}, {"measurement": "GI50", "setting": "MDA-MB-435; [2]", "value": 1.8, "unit": "µM"}, {"measurement": "CC50", "setting": "MDA-MB-435; [3]", "value": 8, "unit": "µM"}, {"measurement": "GI50", "setting": "SK-OV-3; [2]", "value": 6.7, "unit": "µM"}, {"measurement": "CC50", "setting": "SK-OV-3; [3]", "value": 63.6, "unit": "µM"}, {"measurement": "GI50", "setting": "MDA-N; [2]", "value": 1.6, "unit": "µM"}, {"measurement": "CC50", "setting": "MDA-N; [3]", "value": 20.2, "unit": "µM"}, {"measurement": "GI50", "setting": "OVCAR-3; [2]", "value": 3.7, "unit": "µM"}, {"measurement": "CC50", "setting": "OVCAR-3; [3]", "value": 40.7, "unit": "µM"}, {"measurement": "GI50", "setting": "HT29; [2]", "value": 2.2, "unit": "µM"}, {"measurement": "CC50", "setting": "HT29; [3]", "value": 29.1, "unit": "µM"}, {"measurement": "GI50", "setting": "SNB-75; [2]", "value": 2, "unit": "µM"}, {"measurement": "CC50", "setting": "SNB-75; [3]", "value": 21.5, "unit": "µM"}, {"measurement": "GI50", "setting": "SF-295; [2]", "value": 3.4, "unit": "µM"}, {"measurement": "CC50", "setting": "SF-295; [3]", "value": 79.5, "unit": "µM"}, {"measurement": "GI50", "setting": "HCT-15; [2]", "value": 2.2, "unit": "µM"}, {"measurement": "CC50", "setting": "HCT-15; [3]", "value": "> 100", "unit": "µM"}, {"measurement": "GI50", "setting": "HOP-62", "value": 2.9, "unit": "µM"}, {"measurement": "viability at 5 µM", "setting": "RPMI-7951 human melanoma; [4]", "value": 98, "unit": "%"}, {"measurement": "viability at 20 µM", "setting": "RPMI-7951 human melanoma; [4]", "value": 4, "unit": "%"}, {"measurement": "viability at 5 µM", "setting": "RPMI-7951 human melanoma; [5]", "value": 102, "unit": "%"}, {"measurement": "viability at 20 µM", "setting": "RPMI-7951 human melanoma; [5]", "value": 38, "unit": "%"}, {"measurement": "GI50", "setting": "SR; [2]", "value": 1.6, "unit": "µM"}, {"measurement": "CC50", "setting": "SR; [3]", "value": "> 100", "unit": "µM"}, {"measurement": "GI50", "setting": "SK-MEL-2; [2]", "value": 2.4, "unit": "µM"}, {"measurement": "CC50", "setting": "SK-MEL-2; [3]", "value": 25.3, "unit": "µM"}]}
